pEC50, pKi: −log10 of the molar value. Where two headings read alike, the source gives them in different places.
How the values were obtained:
[1] = test system: HIV infected lymphocyte derived CEM cells; assay: Cellular infection assay in CEM cells, XTT cytopathic procedure (EC50); conditions: for TI (therapeutic index, TC50/EC50): CEM cells; for pEC50: read-out: Antiviral Efficacy EC50
Procedure: (§1) Compound concentrations were 0.32, 1, 3.2, 10, 32, and 100 uM.

uninfected CEM cells = assay: Cellular toxicity in uninfected CEM cells, XTT (TC50)
Procedure: as §1

[2] = biological target: T1, Recombinant HIV-1 protease (Human immunodeficiency virus type 1 group M subtype B, UniProt P04585); assay: HIV protease assay (Ki determination, HPLC readout of substrate III cleavage); type: biochemical
T1 construct: Recombinant HIV-1 protease (>96% purity); purchased Bachem Bioscience, Inc. (King of Prussia, Pa.)
Procedure: Recombinant HIV-1 protease (>96% purity) and HIV protease substrate III (the undecapeptide H-His-Lys-Ala-Arg-Val-Leu-Nph-Glu-Ala-Nle-Ser-NH2, 97% purity) were purchased from Bachem Bioscience, Inc. (King of Prussia, Pa.).
The methods employed follow the procedures of Tummino, et al., Archives of Biochemistry and Biophysics, 1995;316:523). […] (total volume, […]). […] The final inhibitor concentrations used were 0 (0.1, 0.2, in some experiments), 0.5, 1, 2, 5, 10, 20, 50, and 100 μM. The solution was mixed, incubated for 5 minutes and the reaction quenched by addition of trifluoracetic acid, 2% final. The (leu-p-nitro-phe) bond of the substrate is cleaved by the enzyme and substrate arid products separated by reverse-phase HPLC. Absorbance was measured at 220 nm, peak areas determined, and percentage conversion to product used to calculate percentage control (=[% conversion (+inhibitor)/% conversion (−inhibitor)]×100).

[3] = Rat blood levels after IV dosing; type: in vivo; conditions: plasma, rats, IV dose of 10 mg/kg; for half-life: read-out: T 1/2 (half life) (converted)
Procedure: (§2) The procedure for pharmacokinetics analysis in dogs and rats was similar. For dog studies, two dogs received a single oral 10 mg/kg dose of the HIV protease inhibitor as a solution. The protease inhibitor was dissolve in 0.1N NaOH followed by buffering or diluting with isotonic phosphate buffer or water depending on solubility. For rat studies. two male rats received a single oral 10 mg/kg gavage dose of the HIV protease inhibitor suspended in 0.5% methylcellulose. For the IV administration, the compounds were dissolved in 0.1N sodium hydroxide at a concentration of 10 mg/ml. The IV dose was given bolus. Blood samples were collected prior to dosing and at 0.25, 0.5, 1, 1.5, 2, 3, 4, 8, 12, and 24 hours postdose. Plasma samples were analyzed for the HIV protease inhibitor using a HPLC procedure. The method involved plasma protein precipitation with acetonitrile, reverse-phase chromatographic separation of the HIV protease inhibitor and internal standard, and quantitation by UV detection. Some plasma samples were concentrated by evaporation prior to injection. Pharmacokinetic parameters were determined by noncompartmental analysis of individual rat-plasma concentration-time curves using WinNonlin. Maximum concentration (Cmax) and time for these to occur (tmax) were recorded as observed. Area under concentration-time curve (AUC) values were obtained using the linear trapezoidal rule.

[4] = Cellular toxicity in uninfected CEM cells, XTT (TC50); conditions: human, uninfected CEM cells (lymphocyte derived)
Procedure: as §1

[5] = Rat blood levels after oral dosing; type: in vivo; conditions: male, plasma, rats, oral dose of 10 mg/kg; for Cmax: read-out: Cmax (maximum concentration reached within the plasma); for half-life: read-out: T 1/2 (half life) (converted)
Procedure: as §2

[6] = Dog blood levels after oral dosing; type: in vivo; conditions: plasma, dogs, oral dose of 10 mg/kg; for half-life: read-out: T 1/2 (half life) (converted)
Procedure: as §2

[7] = Mouse blood levels after oral dosing; type: in vivo, Charles River CD-1 mice; conditions: CD-1, mouse, plasma, mice, oral dose of 25 mg/kg; for Cmax: read-out: Cmax (maximum concentration reached within the plasma); for half-life: read-out: T 1/2 (half life) (converted)
Procedure: Charles River CD-1 mice were dosed with a 25 mg/kg drug solution orally by gavage. For oral dosing the compounds were dissolved in 0.1N NaOH (20% final volume) and then 0.5% methylcellulose (80% final volume) was added. Blood was drawn and pooled from 5 mice at each time point via heart puncture and was placed in a 15 mL centrifuge tube containing heparin. The plasma stored in 200 μL aliquots at −80° C. until assayed.
Plasma was thawed at room temperature and then 400 μL of acetonitrile was added to each vial and vortexed. Following centrifugation the supernatant was removed and evaporated in a nitrogen evaporator at 48° C. Residue was then resolublized in 200 μL of a 75% water/25% CH3CN solution for HPLC analysis. HPLC analysis used a Zorbax RX-C8 column (4.6×150 mm) with a 25 mM potassium phosphate buffer with 0.1% TFA, pH 3.0. Mobile phases consisted of varying percentages of two buffer mixtures: Buffer A—90% buffer, 10% CH3CN, and Buffer B—30% buffer, 70% CH3CN.
A standard curve ranging from 0.5 to 50 μg/mL was used for each drug tested. Ten times final concentration solutions of drug in water were prepared from stock solutions of 1 mg/mL drug in DMSO. The final 1:10 dilution was then done in mouse plasma obtained from mice described above.

[8] = as disclosed by Vander Roest et al., ICAAC 1997, relative to related polar substituted derivatives; cited from earlier work
[9] = test system: HIV infected lymphocyte derived CEM cells; conditions: as disclosed by Hagen et al., J. Med. Chem. 1997; cited from earlier work
[10] = recombinant HIV-1 protease, read-out: Inhib of HIV Protease KI
[11] = read-out: Antiviral Efficacy TC50, uninfected CEM cells
[12] = Human immunodeficiency virus 1, CCRF-CEM

Compound: 3-(2-Amino-5-isopropyl-benzothiazol-6-yl-sulfanyl)-6-[2-(4-fluoro-phenyl)-ethyl]-phenethyl-4-hydroxy-6-isopropyl-5,6-dihydro-pyran-2-one [Example 16]
- TI (therapeutic index, TC50/EC50) [1]: 10.4
- pEC50 ([1]; HIV infected CEM cells): 4.96
- CC50 (uninfected CEM cells): 114000 nM

Compound: 3-(4-Amino-2-tert-butyl-5-methyl-phenylsulfanyl)-6-(2-furan-3-yl-ethyl)-4-hydroxy-6-isopropyl-5,6-dihydro-pyran-2-one [Example 36]
- pKi [2, 10]: 8.77
- TI (therapeutic index, TC50/EC50) [1]: 77
- pEC50 ([1]; HIV infected CEM cells): 5.66
- CC50 (uninfected CEM cells; [11]): 170000 nM

Compound: Cc1cc(SC2=C(O)C[C@@](CCc3ccsc3)(C(C)C)OC2=O)c(C(C)(C)C)cc1CO [Example 12, (S)-3-(2-tert-Butyl-4-hydroxymethyl-5-methyl-phenylsulfanyl)-4-hydroxy-6-isopropyl-6-(2-thiophen-3-yl-ethyl)-5,6-dihydro-pyran-2-one]
- pKi [2, 10]: 10.15
- C0 [3]: 160 µM
- half-life [3]: 12 h
- TI (therapeutic index, TC50/EC50) [1]: 650
- pEC50 [1, 12]: 6.85
- CC50 [4]: 91000 nM
- Cmax [5]: 30 µM
- half-life [5]: 11.5 h
- Cmax [6]: 149 µM
- half-life [6]: 1.75 h
- Cmax [7]: 95 µM
- half-life [7]: 9.5 h

Compound: Cc1cc(SC2=C(O)CC(CCc3cc[nH]n3)(C(C)C)OC2=O)c(C(C)(C)C)cc1N (stereo not shown) [Example 41]
- pKi [2, 10]: 8.19
- TI (therapeutic index, TC50/EC50) [1]: 10
- pEC50 ([1]; HIV infected CEM cells): 4.70
- CC50 (uninfected CEM cells; [11]): 195000 nM

Compound: Cc1cc(SC2=C(O)CC(CCc3ccc(N)cc3)(C(C)C)OC2=O)c(C(C)(C)C)cc1CO (stereo not shown) [Reference Agent 1, reference compound]
- pharmacokinetics in mice [8]: comparatively good pharmacokinetics in mice
- pKi [2]: 9.37
- C0 [3]: 86 µM
- half-life [3]: 3.7 h
- antiviral activity [9]: particularly good antiviral activity
- TI (therapeutic index, TC50/EC50) [1]: >200
- pEC50 [1, 12]: 6.30
- CC50 [4]: > 100000 nM
- Cmax [5]: 16 µM
- half-life [5]: 3.4 h
- Cmax [6]: 140 µM
- half-life [6]: 1.25 h
- Cmax [7]: 23 µM
- half-life [7]: 2.2 h

Compound: Cc1cc(SC2=C(O)CC(CCc3ccc(O)cc3)(C(C)C)OC2=O)c(C(C)(C)C)cc1CO (stereo not shown) [Reference Agent 2, reference compound]
- pharmacokinetics in mice [8]: comparatively good pharmacokinetics in mice
- pKi [2, 10]: 9.66
- C0 [3]: 100 µM
- half-life [3]: 3.9 h
- antiviral activity [9]: particularly good antiviral activity
- TI (therapeutic index, TC50/EC50) [1]: >166
- pEC50 [1, 12]: 6.22
- CC50 [4]: > 100000 nM
- Cmax [5]: 3.4 µM
- half-life [5]: 0.55 h
- Cmax [6]: 40 µM
- half-life [6]: 0.52 h
- Cmax [7]: 17 µM
- half-life [7]: 2 h

Compound: (S)-N-[6-tert-Butyl-5-(4-hydroxy-6-isopropyl-2-oxo-6-[2-(4-hydroxy-phenyl)ethyl]-5,6-dihydro-2H-pyran-3-ylsulfanyl)-indolin-1yl]-(4-cyanophenyl)sulfonamide [Example 70]
- pKi [2, 10]: 9.09
- TI (therapeutic index, TC50/EC50) [1]: 6
- pEC50 ([1]; HIV infected CEM cells): 5.89
- CC50 (uninfected CEM cells; [11]): 8000 nM
